Pest or weed control data for seven molecules are collected here from patent US20220104492A1, “PYRIDAZINIUM COMPOUNDS FOR USE IN A METHOD OF CONTROLLING UNWANTED PLANT GROWTH” (SYNGENTA CROP PROTECTION AG, priority 2019, published 2022).

What all share (assay): Post-emergence efficacy (glasshouse, spray application)
Common to all, as to format: in vivo

One experiment concerns Lolium perenne (LOLPE). The note with it: 312 h, Application rate 500 g/Ha, evaluated after 13 days, 100=total damage to plant, 0=no damage to plant, read-out: Control of weed species after post-emergence application, LOLPE. On the procedure:
(§1) Seeds of a variety of test species were sown in standard soil in pots. After cultivation for 14 days (post-emergence) under controlled conditions in a glasshouse (at 24/16° C., day/night; 14 hours light; 65 humidity), the plants were sprayed with an aqueous spray solution derived from the dissolution of the technical active ingredient formula (I) in a small amount of acetone and a special solvent and emulsifier mixture referred to as IF50 (11.12% Emulsogen EL360 TM+44.44% N-methylpyrrolidone+44.44% Dowanol DPM glycol ether), to create a 50 g/l solution which was then diluted to required concentration using a solution of 0.25% or 1% Empicol ESC70 (Sodium lauryl ether sulphate)+1% ammonium sulphate in water as diluent.
(§2) The test plants were then grown in a glasshouse under controlled conditions (at 24/16° C., day/night; 14 hours light; 65% humidity) and watered twice daily. After 13 days the test was evaluated (100=total damage to plant; 0=no damage to plant).
(§3) Ipomoea hederacea (IPOHE), Euphorbia heterophylla (EPHHL), Chenopodium album (CHEAL), Amaranthus palmeri (AMAPA), Lolium perenne (LOLPE), Digitaria sanguinalis (DIGSA), Eleusine indica (ELEIN), Echinochloa crus-galli (ECHCG), Setaria faberi (SETFA)

For another experiment, the system named is Setaria faberi (SETFA). Particulars: 312 h, Application rate 500 g/Ha, evaluated after 13 days, 100=total damage to plant, 0=no damage to plant, read-out: Control of weed species after post-emergence application, SETFA. On the procedure: as §1, §2, §3
The next experiment deals with Eleusine indica (ELEIN). The note with it: 312 h, Application rate 500 g/Ha, evaluated after 13 days, 100=total damage to plant, 0=no damage to plant, read-out: Control of weed species after post-emergence application, ELEIN. Here is the method:
as §1, §2, §3

Experiment [1] relates to Digitaria sanguinalis (DIGSA). Particulars: 312 h, Application rate 500 g/Ha, evaluated after 13 days, 100=total damage to plant, 0=no damage to plant, read-out: Control of weed species after post-emergence application, DIGSA. On the procedure:
as §1, §2, §3

For experiment [2], the system named is Ipomoea hederacea (IPOHE). The note with it: 312 h, Application rate 500 g/Ha, evaluated after 13 days, 100=total damage to plant, 0=no damage to plant, read-out: Control of weed species after post-emergence application, IPOHE. Here is the method: as §1, §2, §3
The test system of experiment [3] is Amaranthus palmeri (AMAPA). Particulars: 312 h, Application rate 500 g/Ha, evaluated after 13 days, 100=total damage to plant, 0=no damage to plant, read-out: Control of weed species after post-emergence application, AMAPA. On the procedure: as §1, §2, §3
Experiment [4] has as its system Echinochloa crus-galli (ECHCG). Particulars: 312 h, Application rate 500 g/Ha, evaluated after 13 days, 100=total damage to plant, 0=no damage to plant, read-out: Control of weed species after post-emergence application, ECHCG. Here is the method:
as §1, §2, §3

For experiment [5], the system named is Chenopodium album (CHEAL). The note with it: 312 h, Application rate 500 g/Ha, evaluated after 13 days, 100=total damage to plant, 0=no damage to plant, read-out: Control of weed species after post-emergence application, CHEAL. On the procedure: as §1, §2, §3
Experiment [6] deals with Euphorbia heterophylla (EPHHL). Particulars: 312 h, Application rate 500 g/Ha, evaluated after 13 days, 100=total damage to plant, 0=no damage to plant, read-out: Control of weed species after post-emergence application, EPHHL. Here is the method:
as §1, §2, §3

With `O=C(C[n+]1ccc(-c2ncccn2)cn1)NC(Cc1ccccc1)C(=O)O` (stereo not drawn) [Compound A11], the pest or weed control at 500 g/ha stood at 20% in the experiment with Lolium perenne (LOLPE); 50% in the experiment on Setaria faberi (SETFA); 90% in the experiment on Eleusine indica (ELEIN); 90% in experiment [1]; 20% in experiment [2]; 100% in [3]. For the same molecule, the values for the pest or weed control at 500 g/ha in [4], in experiment [5] and in experiment [6] were 70%, 50% and 90%, respectively.
For `CC(NC(=O)C[n+]1ccc(-c2ncccn2)cn1)C(=O)O` (stereo not drawn) [Compound A12], the pest or weed control at 500 g/ha worked out at 50% with Lolium perenne (LOLPE); 70% in the experiment with Setaria faberi (SETFA); 100% with Eleusine indica (ELEIN); 90% in experiment [1]; 70% in experiment [2]; 100% in experiment [3]. For the same molecule, the pest or weed control at 500 g/ha in [4] was 70%; in [5] it was 100%; in experiment [6], 100%.
For the molecule `O=C(C[n+]1ccc(-c2ncccn2)cn1)NC(C(=O)O)c1ccccc1` (stereo not drawn) [Compound A13], the pest or weed control at 500 g/ha with Lolium perenne (LOLPE) amounted to 30%; in the experiment with Setaria faberi (SETFA), 70%; in the experiment with Eleusine indica (ELEIN) it was 90%; in experiment [1], 100%; in [2], 40%; in experiment [3], 100%. Further, the pest or weed control at 500 g/ha in experiment [4] came out at 80%; in experiment [5], 50%; in [6], 50%.
Regarding `O=C(O)CNC(=O)CC[n+]1ccc(-c2ncccn2)cn1` [Compound A14], the pest or weed control at 500 g/ha (in the experiment with Lolium perenne (LOLPE); in the experiment on Setaria faberi (SETFA); in the experiment on Eleusine indica (ELEIN); in experiment [1]; in experiment [2]; in [3]) was 100% each time. The pest or weed control at 500 g/ha in experiment [4] came to 100%; in experiment [5], 90%; in experiment [6], 100%.
Regarding `O=C(O)CS(=O)(=O)CC[n+]1ccc(-c2ncccn2)cn1` [Compound A15], the pest or weed control at 500 g/ha was 10% in the experiment with Lolium perenne (LOLPE); 50% in the experiment on Setaria faberi (SETFA); 70% in the experiment on Eleusine indica (ELEIN); 60% in experiment [1]; 10% in experiment [2]; 70% in experiment [3]. The pest or weed control at 500 g/ha in experiment [4] was 20%; in experiment [5], 20%; in [6] it was 70%.
Take `O=C(O)CSCC[n+]1ccc(-c2cccnn2)cn1` [Compound A18]: the pest or weed control at 500 g/ha in the experiment with Lolium perenne (LOLPE) was found to be 70%; in the experiment on Setaria faberi (SETFA), 60%; in the experiment on Eleusine indica (ELEIN) it was 100%; in experiment [1] it was 60%; in experiment [2], 70%; in experiment [3], 100%. Moreover, the pest or weed control at 500 g/ha was determined as 60% in experiment [4], 90% in experiment [5] and 100% in experiment [6].
Regarding `CS(=O)(=O)N(CC[n+]1ccc(-c2ncccn2)cn1)CC(=O)O` [Compound A19, 2-[methylsulfonyl-[2-(4-pyrimidin-2-ylpyridazin-1-ium-1-yl)ethyl]amino]acetic acid 2,2,2-trifluoroacetate], the pest or weed control at 500 g/ha in the experiment with Lolium perenne (LOLPE) was 30%; in the experiment on Setaria faberi (SETFA), 70%; in the experiment on Eleusine indica (ELEIN) it was 100%; in experiment [1], 70%; in experiment [2], 70%; in experiment [3], 100%. Besides, the pest or weed control at 500 g/ha in experiment [4] is 40%; in experiment [5], 90%; in experiment [6], 80%.
